Results published in patent publication US20250018014A1, “METHOD FOR TREATING AND/OR PREVENTING REGNASE-1-RELATED DISEASE” (OSAKA UNIVERSITY, priority 2018, published 2025).
Residues, ends and D or L forms follow the SMILES beside them.

Legend:
[1] = target: T1, FL_Reg1 (full-length human Regnase-1) phosphorylation by IKKβ (Homo sapiens, UniProt Q5D1E8); assay: Regnase-1 phosphorylation inhibition by compounds (AlphaScreen), IKKβ, full-length Regnase-1; assay type: biochemical; details: Table 14; phosphorylation by IKKβ; read-out: Phosphorylation inhibition FL_Reg1, 50% inhibition concentration (IKKβ)
T1 construct: made in house; host or cells: Expi293 cells
T1 sequence (Q5D1E8 1-599): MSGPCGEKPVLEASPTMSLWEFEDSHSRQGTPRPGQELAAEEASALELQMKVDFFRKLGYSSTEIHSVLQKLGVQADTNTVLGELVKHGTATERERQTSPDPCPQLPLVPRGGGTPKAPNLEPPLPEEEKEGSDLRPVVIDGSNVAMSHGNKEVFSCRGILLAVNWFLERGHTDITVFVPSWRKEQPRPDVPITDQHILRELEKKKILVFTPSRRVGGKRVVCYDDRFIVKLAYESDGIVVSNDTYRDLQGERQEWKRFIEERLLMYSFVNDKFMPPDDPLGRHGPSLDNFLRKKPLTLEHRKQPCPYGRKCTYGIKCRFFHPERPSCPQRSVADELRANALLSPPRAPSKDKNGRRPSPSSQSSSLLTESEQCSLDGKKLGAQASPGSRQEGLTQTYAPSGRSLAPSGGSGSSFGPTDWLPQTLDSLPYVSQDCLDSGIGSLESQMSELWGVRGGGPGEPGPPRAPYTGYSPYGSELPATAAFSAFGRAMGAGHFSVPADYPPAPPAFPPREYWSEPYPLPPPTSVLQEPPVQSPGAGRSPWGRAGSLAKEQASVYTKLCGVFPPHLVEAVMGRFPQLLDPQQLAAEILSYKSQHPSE
Text: (§1) The full-length sequence of human Regnase-1 (UniProt ID: Q5D1E8) was used to prepare a construct having a FLAG tag on the N-terminal side and a recognition sequence for biotin ligase BirA on the C-terminal side (FL_Reg1) as a target protein. The above-mentioned Regnase-1 was expressed in mammalian Expi293 cells, purified with FLAG M2 agarose, and isolated by gel filtration chromatography. When biotinylation was required, methods from nonpatent documents (BMC biotechnology, 2008,8,41; and Protein Science, 1999,8,921-929) were used. […]
(§2) Using Kinase assay buffer III (manufactured by SignalChem) supplemented with 2 mM DTT, 100 μM sodium vanadate, and 2 mM manganese chloride, kinase (IKKβ (manufactured by SignalChem) or TBK1 (manufactured by SignalChem)) and Regnase-1 were reacted in the presence of 10 μM ATP at room temperature for 2 hours to perform a phosphorylation reaction.
(§3) Phosphorylated Regnase-1 was detected by the AlphaScreen system. After each of the above-mentioned phosphorylated Regnase-1 antibodies was added and reacted at room temperature for one hour, anti-FLAG AlphaLISA Acceptor Beads (manufactured by PerkinElmer) and Protein A AlphaScreen Donor Beads (manufactured by PerkinElmer) were added, and EnVision (manufactured by PerkinElmer) was used to measure the excited luminescence. As a result, phosphorylated Regnase-1 produced by the phosphorylation reaction by kinase was specifically detected, and signals were confirmed to be enhanced in a manner dependent on Regnase-1 and kinase concentrations (FIG. 24).
(§4) After mixing 2 nM of the above-mentioned Regnase-1 and the compound, phosphorylated Regnase-1 produced by the phosphorylation reaction was detected by the AlphaScreen system. As the results, the inhibition rate was calculated from the signals obtained when adding the compound at each concentration, by defining the signal obtained with Regnase-1 alone to be 100% inhibition rate, and the signal obtained when the same amount of solvent (DMSO) is added in place of the compound as 0% inhibition rate. The 50% inhibition concentration (μM) was calculated from the obtained dose response curve (Table 11).

[2] = target: T2, FL_Reg1 (full-length human Regnase-1) phosphorylation by TBK1 (Homo sapiens, UniProt Q5D1E8); assay: Regnase-1 phosphorylation inhibition by compounds (AlphaScreen), TBK1, full-length Regnase-1; assay type: biochemical; details: Table 13; phosphorylation by TBK1; read-out: Phosphorylation inhibition FL_Reg1, 50% inhibition concentration (TBK1)
T2 construct: made in house; host or cells: Expi293 cells
T2 sequence (Q5D1E8 1-599): T1 sequence (Q5D1E8 1-599)
Text: as §1, §2, §3, §4

[3] = target: T3, binding between TBK1 and full-length Regnase-1 (FL_Reg1) (Homo sapiens, UniProt Q5D1E8); assay: Inhibition of kinase-Regnase-1 binding by the compounds (AlphaScreen), TBK1; details: Table 13; binding between TBK1 and Regnase-1; read-out: Binding inhibition FL_Reg1, 50% inhibition concentration (TBK1)
T3 construct: made in house; host or cells: Expi293 cells
T3 sequence (Q5D1E8 1-599): T1 sequence (Q5D1E8 1-599)
Description: (§5) As a target protein, a construct having a FLAG tag on the N-terminal side and a recognition sequence for biotin ligase BirA on the C-terminal side of the full-length sequence of human Regnase-1 (UniProt ID: Q5D1E8) was prepared (FL_Reg1). The above-mentioned Regnase-1 was expressed in mammalian Expi293 cells, purified with FLAG M2 agarose, and isolated by gel filtration chromatography. When biotinylation was required, methods from nonpatent documents (BMC biotechnology, 2008,8,41; and Protein Science, 1999,8,921-929) were used.
(§6) After mixing 2.5 nM of the above-mentioned Regnase-1 and the compound, 2.5 nM of IKKβ or TBK1 was added and reacted at room temperature for two hours. Then, Anti FLAG AlphaLISA Acceptor Beads (manufactured by PerkinElmer) and Glutathione-coated AlphaScreen Donor Beads (manufactured by PerkinElmer) were added, and excited luminescence was measured using En Vision (manufactured by PerkinElmer). As the results, the inhibition rate from the signals obtained when adding the compound at each concentration were calculated, by defining the signal obtained with Regnase-1 alone to be 100% inhibition rate, and the signal obtained when the same amount of solvent (DMSO) is added in place of the compound as 0% inhibition rate. The 50% inhibition concentration (μM) was calculated from the obtained dose response curve (Table 12).

[4] = target: T4, Reg1_301-599 (amino acids 301-599 of human Regnase-1) phosphorylation by IKKβ (Homo sapiens, UniProt Q5D1E8); assay: Regnase-1 phosphorylation inhibition by compounds (AlphaScreen), IKKβ, C-terminal Regnase-1; assay type: biochemical; details: Table 14, read-out: Phosphorylation inhibition Reg1_301-599, 50% inhibition concentration (IKKβ)
T4 construct: made in house; host or cells: Expi293 cells
T4 sequence (Q5D1E8 301-599): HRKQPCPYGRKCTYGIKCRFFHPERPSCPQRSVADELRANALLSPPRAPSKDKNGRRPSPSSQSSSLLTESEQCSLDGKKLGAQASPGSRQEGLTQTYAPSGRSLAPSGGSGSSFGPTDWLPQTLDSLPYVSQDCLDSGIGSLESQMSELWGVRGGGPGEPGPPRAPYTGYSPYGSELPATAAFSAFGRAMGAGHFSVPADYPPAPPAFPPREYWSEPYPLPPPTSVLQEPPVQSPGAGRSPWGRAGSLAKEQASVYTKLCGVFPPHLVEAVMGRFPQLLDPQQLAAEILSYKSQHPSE
Text: The full-length sequence of human Regnase-1 (UniProt ID: Q5D1E8) was used to prepare a construct having a FLAG tag on the N-terminal side and a recognition sequence for biotin ligase BirA on the C-terminal side (FL_Reg1) as a target protein. The above-mentioned Regnase-1 was expressed in mammalian Expi293 cells, purified with FLAG M2 agarose, and isolated by gel filtration chromatography. When biotinylation was required, methods from nonpatent documents (BMC biotechnology, 2008,8,41; and Protein Science, 1999,8,921-929) were used.
(§7) Among the full-length human Regnase-1 sequence, the 1st to 546th amino acid sequence was prepared and made into a construct having a FLAG tag on the N-terminal side and a biotin ligase BirA recognition sequence on the C-terminal side (herein, a Regnase-1 lacking the C-terminal domain of Regnase-1 (amino acids 547 to 599 in the case of SEQ ID NO: 2) is referred to as “ΔCTD_Reg1”. “ΔCTD_Reg1” is different from “Regnase-1ΔCTD”, which is a C-terminal domain deletion variant resulting from a frameshift mutation caused by a 1 bp deletion at codon 517, as prepared in Example 13). In addition, the sequence from amino acids 301 to 599 of the full-length human Regnase-1 sequence was designated as C-terminal Regnase-1, and a construct having a FLAG tag on the N-terminal side and a recognition sequence for biotin ligase BirA on the C-terminal side was prepared (Reg1_301-599). The above-mentioned Regnase-1 was expressed in mammalian Expi293 cells, purified with FLAG M2 agarose, and isolated by gel filtration chromatography. When biotinylation was required, methods of nonpatent documents (BMC biotechnology, 2008,8,41; and Protein Science, 1999,8,921-929) were used.
as §2, §3, §4

[5] = target: T5, binding between IKKβ and full-length Regnase-1 (FL_Reg1) (Homo sapiens, UniProt Q5D1E8); assay: Inhibition of kinase-Regnase-1 binding by the compounds (AlphaScreen), IKKβ; details: Table 14; binding between IKKβ and Regnase-1; read-out: Binding inhibition FL_Reg1, 50% inhibition concentration (IKKβ)
T5 construct: made in house; host or cells: Expi293 cells
T5 sequence (Q5D1E8 1-599): T1 sequence (Q5D1E8 1-599)
Description: as §5, §6

[6] = target: T6, Reg1_301-599 (amino acids 301-599 of human Regnase-1) phosphorylation by TBK1 (Homo sapiens, UniProt Q5D1E8); assay: Regnase-1 phosphorylation inhibition by compounds (AlphaScreen), TBK1, C-terminal Regnase-1; assay type: biochemical; details: Table 13, read-out: Phosphorylation inhibition Reg1_301-599, 50% inhibition concentration (TBK1)
T6 construct: made in house; host or cells: Expi293 cells
T6 sequence (Q5D1E8 301-599): T4 sequence (Q5D1E8 301-599)
Description: as §7, §2, §3, §4

For `CC[C@H](C)[C@@H]1NC(=O)[C@H](CC(N)=O)NC(=O)[C@H](Cc2ccc(O)cc2)NC(=O)[C@H](Cc2c[nH]c3ccccc23)NC(=O)[C@H](CO)NC(=O)[C@H](CC(N)=O)NC(=O)[C@H](Cc2c[nH]c3ccccc23)NC(=O)[C@H](Cc2ccc(O)cc2)NC(=O)[C@H](CCCCN)NC(=O)[C@H](CO)NC(=O)[C@@H](C)N(C)C(=O)C[C@@H](C(=O)N2CCCC2)NC(=O)[C@H](Cc2c[nH]c3ccccc23)NC1=O` [PP8] (HELM PEPTIDE1{[C[C@H](C(=O)[*:2])N(C)[*:1]].S.K.Y.W.N.S.W.Y.N.I.W.D.[C1CCN([*:1])C1]}$PEPTIDE1,PEPTIDE1,1:R1-13:R3$$$V2.0), the IC50 [1] was 1.4 µM, the IC50 [2] was 2.9 µM and the IC50 [3] was 6.5 µM. It also gave an IC50 [4] of 5.7 µM and an IC50 [5] of 7.4 µM.
`CC[C@H](C)[C@@H]1NC(=O)[C@H](C)NC(=O)[C@H](CCCNC(=N)N)NC(=O)[C@H](Cc2ccc(O)cc2)NC(=O)[C@H](Cc2ccc(O)cc2)NC(=O)[C@H](C)NC(=O)[C@H](CO)NC(=O)[C@H](CC(N)=O)NC(=O)[C@H](Cc2ccccc2)NC(=O)[C@H](CC(N)=O)NC(=O)[C@H](C)N(C)C(=O)C[C@@H](C(=O)N2CCCC2)NC(=O)[C@H](Cc2c[nH]c3ccccc23)NC1=O` [PP7] (HELM PEPTIDE1{[meA].N.F.N.S.A.Y.Y.R.A.I.W.D.[C1CCN([*:1])C1]}$PEPTIDE1,PEPTIDE1,1:R1-13:R3$$$V2.0) was tested, and the IC50 [1] was 0.8 µM, the IC50 [2] was 2.2 µM and the IC50 [6] was 4.6 µM. The IC50 [3] was 17.9 µM and the IC50 [5] was 15.1 µM.
